In ChEMBL document CHEMBL4699610, “Synthesis and biological evaluation of anti-tubercular activity of Schiff bases of 2-Amino thiazoles” (2020) one finds MIC data, which are given here for 21 molecules.

Each structure is given as a SMILES string. Values after ≈ are worked out from the molar mass of the structure shown.

Broadly, the MIC is the least concentration at which growth counts as inhibited.

The test system of this assay is Mycobacterium tuberculosis. The assay can be described thus: Antitubercular activity against Mycobacterium tuberculosis H37Rv assessed as bacterial growth inhibition by MABA relative to control. The class given is functional. In general terms: The colour change of resazurin is a common sign of viable cells or microbes.
`O=C1c2ccccc2C(=O)N1c1ccc(-c2csc(N/C=C\c3ccccc3[N+](=O)[O-])n2)cc1`: the minimum inhibitory concentration (MIC) stood at 25 µg/mL (≈ 53.4 µM). For the molecule `Nc1nc(-c2ccc(NC(=O)c3ccccc3)cc2)cs1`, the minimum inhibitory concentration (MIC) was 50 µg/mL (≈ 169 µM).

On to `O=C1CCC(=O)N1c1ccc(-c2csc(N/C=C\c3ccccc3[N+](=O)[O-])n2)cc1`, for which the MIC worked out at 100 µg/mL (≈ 238 µM).

For the molecule `O=C(Nc1ccc(-c2csc(N/C=C\c3ccc(F)cc3)n2)cc1)c1ccccc1`, the MIC stood at 12.5 µg/mL (≈ 30.1 µM).

On to `O=C(Nc1ccc(-c2csc(N/C=C\c3ccccc3[N+](=O)[O-])n2)cc1)c1ccccc1`, for which the MIC was determined as 6.25 µg/mL (≈ 14.1 µM). For the molecule `NNC(=O)c1ccncc1` [ISONIAZID], the minimum inhibitory concentration (MIC) was 1.6 µg/mL (≈ 11.7 µM). For `NC(=O)c1cnccn1` [PYRAZINAMIDE], the MIC is 3.12 µg/mL (≈ 25.4 µM). As to `O=C(Nc1ccc(-c2csc(N/C=C\c3ccc(O)cc3)n2)cc1)c1ccccc1`, the MIC was found to be 6.25 µg/mL (≈ 15.1 µM). Take `O=C(O)c1cn(C2CC2)c2cc(N3CCNCC3)c(F)cc2c1=O` [CIPROFLOXACIN]: the MIC turned out to be 3.12 µg/mL (≈ 9.43 µM). As for `O=C1CCC(=O)N1c1ccc(-c2csc(N/C=C\c3ccc(F)cc3)n2)cc1`, the minimal inhibitory concentration (MIC) turned out to be 12.5 µg/mL (≈ 31.8 µM).

On to `O=C(Nc1ccc(-c2csc(N/C=C\c3cccc(Cl)c3)n2)cc1)c1ccccc1`, for which the minimum inhibitory concentration (MIC) was determined as 25 µg/mL (≈ 57.9 µM).

As to `Nc1nc(-c2ccc(N3C(=O)c4ccccc4C3=O)cc2)cs1`, the MIC is 12.5 µg/mL (≈ 38.9 µM). Turning to `O=C1CCC(=O)N1c1ccc(-c2csc(N/C=C\c3ccc(O)cc3)n2)cc1`, the minimum inhibitory concentration (MIC) was 100 µg/mL (≈ 255 µM).

For `O=C1CCC(=O)N1c1ccc(-c2csc(N/C=C\c3cccc(Cl)c3)n2)cc1`, the MIC worked out at 25 µg/mL (≈ 61 µM). As for `COc1cc(/C=C\Nc2nc(-c3ccc(N4C(=O)c5ccccc5C4=O)cc3)cs2)cc(OC)c1OC`, the MIC came out at 6.25 µg/mL (≈ 12.2 µM).

Turning to `CC[C@@H](CO)NCCN[C@@H](CC)CO` [ETHAMBUTOL], the MIC stood at 3.2 µg/mL (≈ 15.7 µM). As for `Nc1nc(-c2ccc(N3C(=O)CCC3=O)cc2)cs1`, the MIC was found to be 6.25 µg/mL (≈ 22.9 µM). Regarding `COc1cc(/C=C\Nc2nc(-c3ccc(N4C(=O)CCC4=O)cc3)cs2)cc(OC)c1OC`, the minimal inhibitory concentration (MIC) amounted to 25 µg/mL (≈ 53.7 µM). As to `CN[C@@H]1[C@H](O[C@H]2[C@H](O[C@H]3[C@H](O)[C@@H](O)[C@H](N=C(N)N)[C@@H](O)[C@@H]3N=C(N)N)O[C@@H](C)[C@]2(O)C=O)O[C@@H](CO)[C@H](O)[C@H]1O` [STREPTOMYCIN], the MIC was 0.8 µg/mL (≈ 1.38 µM).

As to `CO[C@H]1/C=C/O[C@@]2(C)Oc3c(C)c(O)c4c(O)c(c(/C=N/N5CCN(C)CC5)c(O)c4c3C2=O)NC(=O)/C(C)=C\C=C\[C@H](C)[C@H](O)[C@@H](C)[C@@H](O)[C@@H](C)[C@H](OC(C)=O)[C@@H]1C` [RIFAMPIN], the minimum inhibitory concentration (MIC) was determined as 0.8 µg/mL (≈ 0.972 µM). As to `COc1cc(/C=C\Nc2nc(-c3ccc(NC(=O)c4ccccc4)cc3)cs2)cc(OC)c1OC`, the minimal inhibitory concentration (MIC) stood at 25 µg/mL (≈ 51.3 µM).
